Laboratory results published in patent US9382549B2, “Glyphosate resistant plants and associated methods” (DOW AGROSCIENCES LLC, priority 2012, dated 2016).

What was measured:
T0 corn = test: T0 dgt-28 corn postemergence glyphosate tolerance; assay type: in vivo, Zea mays
Description: Zea mays dgt-28 transformation events (T0) were allowed to acclimate in the greenhouse and were grown until plants had transitioned from tissue culture to greenhouse growing conditions (i.e., 2-4 new, normal looking leaves had emerged from the whorl). Plants were grown at 27° C. under 16 hour light:8 hour dark conditions in the greenhouse. The plants were then treated with commercial formulations of DURANGO DMA™ (containing the herbicide glyphosate) with the addition of 2% w/v ammonium-sulfate. Herbicide applications were made with a track sprayer at a spray volume of 187 L/ha, 50-cm spray height. T0 plants were sprayed with a range of glyphosate from 280-4480 g ae/ha glyphosate, which is capable of significant injury to untransformed corn lines. A lethal dose is defined as the rate that causes >95% injury to the B104 inbred.
T0 events of dgt-28 linked with TraP4, TraP5, TraP8 and TraP23 were generated by Agrobacterium transformation and were allowed to acclimate under controlled growth chamber conditions until 2-4 new, normal looking leaves had emerged from the whorl. Plants were assigned individual identification numbers and sampled for copy number analyses of both dgt-28 and aad-1. Based on copy number analyses, plants were selected for protein expression analyses. […]

[1] = test system: untransformed B104 maize line; test: Growth inhibition dosage response of maize cells on glyphosate; assay type: cell-based, Zea mays
T1 Arabidopsis [2] = test: T1 Arabidopsis response to postemergence glyphosate, visual % injury (dgt-28, dgt-32, dgt-33, dgt-3, dgt-7); assay type: in vivo, Arabidopsis thaliana
Text: Transgenic T1 Arabidopsis plants containing the dgt-28 transgene were sprayed with differing rates of glyphosate. Elevated rates were applied in this study to determine the relative levels of resistance (105, 420, 1,680 or 3,360 g ae/ha). A typical 1× usage rate of glyphosate that will control non-transformed Arabidopsis is 420 g ae/ha. […] The T1 Arabidopsis plants that were used in this study were variable copy number for the dgt-28 transgene. The low copy dgt-28 T1 Arabidopsis plants were self-pollinated and used to produce T2 plants.
The Arabidopsis T1 transformants were first selected from the background of untransformed seed using a glufosinate selection scheme. Three flats or 30,000 seed were analyzed for each T1 construct. The T1 plants selected above were molecularly characterized and representative plants with variable copy number were subsequently transplanted to individual pots and sprayed with various rates of commercial glyphosate as previously described. The response of these plants is presented in terms of % visual injury 2 weeks after treatment (WAT). […] An arithmetic mean and standard deviation is presented for each construct used for Arabidopsis transformation. The range in individual response is also indicated in the last column for each rate and transformation. Wild-type, non-transformed Arabidopsis (c.v. Columbia) served as a glyphosate sensitive control.

[3] = test system: T1 wheat, Bobwhite MPB26RH; test: Wheat detailed phenotypic screen (glyphosate 420-3360 g ai/ha); assay type: in vivo, Triticum aestivum; conditions: untransformed donor wheat
Description: Four replicates of 12 T1 seeds per selected event and eight replicates (12 seeds each) of the untransformed donor wheat line Bobwhite MPB26RH were sown in 85 mm pots and grown to the 2-leaf stage under well-watered conditions at 25° C. with supplementary lighting providing a 12 hour photoperiod. The pots were placed in a randomised design to allow environmental effects to be removed during data analysis. At the 2-leaf stage, plant length and number of leaves was recorded for each plant before spraying with glyphosate. The first, second, third and fourth replicate of T1 plants for each selected event and the untransformed donor wheat line were sprayed at a dose rate of 420, 840, 1680 and 3360 g ai/ha, respectively. The fifth, sixth, seventh and eighth replicate of untransformed donor wheat line (total 48 plants) were not sprayed. At 7, 14 and 21 days after spraying, the plants were scored for plant length, number of leaves and phenotypic response to glyphosate using the scoring scale in Table 37. Any morphological abnormalities were also recorded. For scoring, the scorer was “blinded” with regard to plant genotype and spray dose rate to prevent scoring bias. Plants with delayed germination and poor establishment (criteria: plant length <6 cm) at the pre-spray scoring were excluded from subsequent analyses.
This differentiation was maximal at 21 days and was observed across all glyphosate dose rates. Table 41. To assess the tolerance of the transgenic events to glyphosate at each spray dose rate, null T1 plants (i.e., plants not carrying the transgene) were excluded from subsequent analyses. T1 plants with a response score of less than three at 21 days after spraying were considered to have the null genotype. […]

T1 Arabidopsis [4] = test: dgt-31, dgt-32, dgt-33 v1 T1 Arabidopsis response to glyphosate, visual % injury 2 WAT; assay type: in vivo, Arabidopsis thaliana
Text: T1 plants were sampled and copy number analysis for the dgt-31, dgt-32, and dgt-33 v1 gene were completed. T1 plants were then assigned to various rates of glyphosate so that a range of copies were among each rate. For Arabidopsis, 26.25 g ae/ha glyphosate is an effective dose to distinguish sensitive plants from ones with meaningful levels of resistance. Elevated rates were applied to determine relative levels of resistance (105, 420, 1680, or 3360 g ae/ha).
All glyphosate herbicide applications were made by track sprayer in a 187 L/ha spray volume. Glyphosate used was of the commercial Durango dimethylamine salt formulation (480 g ae/L, Dow AgroSciences, LLC).
T1 plants selected above were subsequently transplanted to individual pots and sprayed with various rates of commercial glyphosate. Table 15 compares the response of dgt-31, dgt-32, and dgt-33 v1 and control genes to impart glyphosate resistance to Arabidopsis T1 transformants. Response is presented in terms of % visual injury 2 WAT. […] An arithmetic mean and standard deviation is presented for each treatment. The range in individual response is also indicated in the last column for each rate and transformation. Wild-type non-transformed Arabidopsis (cv. Columbia) served as a glyphosate sensitive control. […]

[5] = test system: EPSP synthase (DGT enzymes); test: Steady-state kinetic parameters of DGT enzymes (Km for PEP, kcat/Km); assay type: biochemical
Description: The enzyme activities of wild-type (WT) and mutant DGTs were measured by inorganic phosphate (Pi) production in a modified procedure described by Lanzetta et al. (1979) Anal. Bioch. […] Assays were performed in 96-well plate format in a total of 50 μL on a Spectra-Max 190 plate reader (Molecular Devices, Sunnyvale, Calif.). Typical assays contained 50 mM HEPES pH 7.5, 150 mM KCl, 2 mM DTT, and 1 mM S3P. […] Assays were initiated by addition of the DGT enzyme at concentrations that varied between 0.01-1 μM. Reactions were terminated by the addition of 235 μL of a 3:1 mixture of malachite green: ammonium molybdate solution. After complete color development (˜1 minute), the absorbance change at 660 nm was recorded and the amount of Pi formed was calculated from a standard curve. Control reactions lacking enzyme were used to correct for background absorbance. […] The data were fitted to the Michaelis-Menten equation which allowed for the determination of Km and Vmax (Equation 3) while IC50 was determined from Equation 4, where y is the relative activity and s is the Hill coefficient. Data were analyzed using GRAFIT™ version 5 software (Erithacus Software Limited, Horley, U.K.).

[6] = 420 g ai/ha, Replicate 1, 10 plants pre-spray
[7] = 840 g ai/ha, Replicate 2, 10 plants pre-spray
[8] = 1680 g ai/ha, Replicate 3, 11 plants pre-spray
[9] = 3360 g ai/ha, Replicate 4, 10 plants pre-spray

O=C(O)CNCP(=O)(O)O [glyphosate, N-(phosphonomethyl) glycine]
glyphosate rate controlling non-transformed plants (T0 corn): ≥ 280 g ae/ha
glyphosate concentration sufficient to inhibit cell growth [1]: ≥ 0.25 mM
typical 1× usage rate of glyphosate that will control non-transformed Arabidopsis (T1 Arabidopsis [2]): 420 g ae/ha
No. surviving plants at 14 days after spraying [3, 6]: 0
No. surviving plants at 21 days after spraying [3, 6]: 0
No. surviving plants at 14 days after spraying [3, 7]: 3
No. surviving plants at 21 days after spraying [3, 7]: 0
No. surviving plants at 14 days after spraying [3, 8]: 0
No. surviving plants at 21 days after spraying [3, 8]: 0
No. surviving plants at 14 days after spraying [3, 9]: 1
No. surviving plants at 21 days after spraying [3, 9]: 0
effective dose to distinguish sensitive plants from ones with meaningful levels of resistance (T1 Arabidopsis [4]; Arabidopsis): 26.25 g ae/ha

B1: DGT-28 v1: native EPSP synthase of Streptomyces sviceus (SEQ ID NO:1), N-terminal 6×His tag, E. coli expressed (protein, listed as Streptomyces sviceus)
chain: MRGMPALSLPGSKSITARALFLAAAADGVTTLVRPLRSDDTEGFAEGLVRLGYRVGRTPDTWQVDGRPQGPAVAEADVYCRDGATTARFLPTLAAAGHGTYRFDASPQMRRRPLLPLSRALRDLGVDLRHEEAEGHHPLTVRAAGVEGGEVTLDAGQSSQYLTALLLLGPLTRQGLRIRVTDLVSAPYVEITLAMMRAFGVEVAREGDVFVVPPGGYRATTYAIEPDASTASYFFAAAALTPGAEVTVPGLGTGALQGDLGFVDVLRRMGAEVSVGADATTVRGTGELRGLTANMRDISDTMPTLAAIAPFASAPVRIEDVANTRVKECDRLEACAENLRRLGVRVATGPDWIEIHPGPATGAQVTSYGDHRIVMSFAVTGLRVPGISFDDPGCVRKTFPGFHEAFAELRRGIGS
modifications: N-terminal 6xHis tag
catalytic efficiency [5]: 132000 M⁻¹ s⁻¹
Km ([5]; read-out: KM^PEP): 91.6 µM

B2: DGT-31 (v1): Streptomyces EPSP synthase (GENBANK YP_004922608.1) (protein)
chain: MTVIDIPGSKSVTARALFLAAAADGTTTLLRPLHSDDTEGFTEGLTRLGYAVVREPDRWHIEGRPSGPAAADAEVHCRDGATTARFLPTLAAAAASGTYRFDASAQMRRRPLAPLTEALRTLGVDLRHDGAEGHHPLTIQASGVKGGGLTLDAGESSQYLTALLMLGPLTAEGLRIEVTELVSAPYVEITLAMMRGFGVEVVREGNTFTVPPGGYRATTYAIEPDASTASYFFAAAALTGREVTVPGLGTGALQGDLRFTEVLRRMDADVRTTSDSTTVRSDGRLAGLTVNMRDISDTMPTLAAIAPYASSPVRIEDVANTRVKECDRLEACAQNLRSMGITVRTGPDWIEIHPGTPRPTEIATHGDHRIVMSFAVAGLRTPGMSYDDPGCVRKTFPRFHEEFAAFVERSSAGE
modifications: DGT-31 protein
tolerance to glyphosate (T1 Arabidopsis [4]; T1 Arabidopsis, DGT-31 with TraP23, DGT-32, DGT-33 with TraP8, TraP14, TraP24): slight herbicide tolerance
